Assay results: the supplement of paper PMC10307832

Tests used:
Assay in all cases: relative viability (nuclei count vs DMSO), 5 days (fraction); higher = more cells survive
Axitinib + OSI-027 = compound: CNC(=O)c1ccccc1Sc1ccc2c(/C=C/c3ccccn3)n[nH]c2c1 [Axitinib] + COc1cccc2cc(-c3nc([C@H]4CC[C@H](C(=O)O)CC4)n4ncnc(N)c34)[nH]c12 [OSI-027] (partner 0.5 µM)
In short: (§1)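 After 5 days of treatment, lung cancer cells in 1536-well plates were fixed and stained in a single step (final 0.05% Triton X-100, 1% formaldehyde, 1 ug/ml Hoechst) and their nuclei counted on 4× images. Treatment had been applied by pin tool the day after seeding as one drug alone or as a fixed anchor-drug dose with five library-drug doses (not always all listed) in √10 steps. Relative viability is the nuclei count of treated wells divided by that of vehicle wells, and values are medians of duplicate plates.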

Bemcentinib + Linsitinib = compound: Nc1nc(Nc2ccc3c(c2)CC[C@@H](N2CCCC2)CC3)nn1-c1cc2c(nn1)-c1ccccc1CCC2 [Bemcentinib] + C[C@]1(O)C[C@@H](c2nc(-c3ccc4ccc(-c5ccccc5)nc4c3)c3c(N)nccn32)C1 [Linsitinib] (partner 1 µM)
In short: as §1

[1] = compound: CC1=CC=C(C=C1)C(=O)CN2C3=C(CCCC3)SC2=N [Pifithrin_alpha] + CC1(C)CCC(c2ccc(Cl)cc2)=C(CN2CCN(c3ccc(C(=O)NS(=O)(=O)c4ccc(N[C@H](CCN5CCOCC5)CSc5ccccc5)c(S(=O)(=O)C(F)(F)F)c4)cc3)CC2)C1 [Navitoclax] (partner 0.5 µM)
In short: as §1

Bemcentinib + Trametinib = compound: Nc1nc(Nc2ccc3c(c2)CC[C@@H](N2CCCC2)CC3)nn1-c1cc2c(nn1)-c1ccccc1CCC2 [Bemcentinib] + CC(=O)Nc1cccc(-n2c(=O)n(C3CC3)c(=O)c3c(Nc4ccc(I)cc4F)n(C)c(=O)c(C)c32)c1 [Trametinib] (partner 0.02 µM)
In short: as §1

| Cell Line | relative viability (Axitinib + OSI-027; first compound 0.005 µM) | relative viability (Axitinib + OSI-027; first compound 0.01581 µM) | relative viability (Axitinib + OSI-027; first compound 0.05 µM) | relative viability (Axitinib + OSI-027; first compound 0.1581 µM) | relative viability (Axitinib + OSI-027; first compound 0.5 µM) | relative viability (Bemcentinib + Linsitinib; first compound 0.04 µM) | relative viability (Bemcentinib + Linsitinib; first compound 0.1265 µM) | relative viability (Bemcentinib + Linsitinib; first compound 0.4 µM) | relative viability (Bemcentinib + Linsitinib; first compound 1.265 µM) | relative viability (Bemcentinib + Linsitinib; first compound 4 µM) | relative viability ([1]; first compound 1 µM) | relative viability ([1]; first compound 3.162 µM) | relative viability ([1]; first compound 10 µM) | relative viability ([1]; first compound 31.62 µM) | relative viability ([1]; first compound 100 µM) | relative viability (Bemcentinib + Trametinib; first compound 0.04 µM) | relative viability (Bemcentinib + Trametinib; first compound 0.1265 µM) | relative viability (Bemcentinib + Trametinib; first compound 0.4 µM) | relative viability (Bemcentinib + Trametinib; first compound 1.265 µM) | relative viability (Bemcentinib + Trametinib; first compound 4 µM) |
| --- | --- | --- | --- | --- | --- | --- | --- | --- | --- | --- | --- | --- | --- | --- | --- | --- | --- | --- | --- | --- |
| NCI-H441 | 0.736 | 0.604 | 0.681 | 0.541 | 0.748 | 0.525 | 0.702 | 0.76 | 0.496 | 0.581 | 0.652 | 0.813 | 0.587 | 0.481 | 0.831 | 0.294 | 0.435 | 0.499 | 0.347 | 0.409 |
| NCI-H23 | 0.66 | 0.568 | 0.617 | 0.652 | 0.699 | 0.576 | 0.692 | 0.554 | 0.72 | 0.568 | 0.797 | 0.857 | 0.889 | 0.736 | 0.729 | 0.363 | 0.432 | 0.353 | 0.429 | 0.466 |
| NCI-H647 | 0.703 | 0.617 | 0.69 | 0.551 | 0.787 | 1.17 | 1.35 | 1.12 | 1.28 | 1.17 | 0.814 | 1.07 | 0.86 | – | 1.03 | 0.493 | 0.545 | 0.538 | 0.392 | 0.634 |
| LXF-289 | 0.76 | 0.727 | 0.785 | 0.763 | 0.877 | 0.955 | 1.06 | 0.972 | 0.991 | 0.995 | 0.984 | 1.01 | 0.96 | 0.793 | 0.901 | 0.705 | 0.681 | 0.648 | 0.7 | 0.773 |
| NCI-H596 | 0.893 | 0.649 | 0.855 | 0.797 | 0.556 | 1.03 | 1.03 | 1.03 | 1.17 | 1.06 | 0.844 | 0.891 | 0.9 | 0.88 | 1.13 | 0.911 | 0.965 | 0.93 | 0.946 | 0.923 |
